Patent publication US20240415914A1, “Water Dispersible Cannabinoid Compositions” (priority 2021, published 2024)
Like-named read-outs stand apart in the source and are kept apart here.

Experiments:
[1] = Stability of cannabinoid and Vitamin E components of Beverage 2 (AB Red) stored at 8° C. and 21-25° C., LCMSMS over 570 days; details: 21-25° C.
Protocol: The LCMSMS was calibrated for 0-50 ng/ml cannabinoids with the same resin material used in the preparation of the concentrates. At each time period, 100 μml of beverage was diluted with 10 ml of methanol and injected into the LCMSMS for analysis.

[2] = type: physicochemical; details: stored at room temperature (21-25° C.)
Protocol: At each time period, 0.05 g of powder was dissolved in 10 ml-15 of ethanol, diluted to fall within the analytical range, and injected into the LCMSMS for analysis.

CCCCCc1cc(O)c2c(c1)OC1(C)CCC3C1C2C3(C)C (centres unmarked) [CBL, cannabicyclol]
Stability of Cannabinoids in AB Red ([1]; 29 days): 0.49 µg/mL | Stability of Cannabinoids in AB Red ([1]; 30 days): 0.51 µg/mL | Stability of Cannabinoids in AB Red ([1]; 60 days): 0.50 µg/mL | Stability of Cannabinoids in AB Red ([1]; 90 days): 0.49 µg/mL | Stability of Cannabinoids in AB Red ([1]; 120 days): 0.50 µg/mL | Stability of Cannabinoids in AB Red ([1]; 150 days): 0.49 µg/mL | Stability of Cannabinoids in AB Red ([1]; 180 days): 0.50 µg/mL | Stability of Cannabinoids in AB Red ([1]; 210 days): 0.49 µg/mL | Stability of Cannabinoids in AB Red ([1]; 240 days): 0.49 µg/mL | Stability of Cannabinoids in AB Red ([1]; 270 days): 0.49 µg/mL | Stability of Cannabinoids in AB Red ([1]; 300 days): 0.50 µg/mL | Stability of Cannabinoids in AB Red ([1]; 330 days): 0.50 µg/mL | Stability of Cannabinoids in AB Red ([1]; 390 days): 0.49 µg/mL | Stability of Cannabinoids in AB Red ([1]; 420 days): 0.48 µg/mL | Stability of Cannabinoids in AB Red ([1]; 450 days): 0.49 µg/mL | Stability of Cannabinoids in AB Red ([1]; 480 days): 0.48 µg/mL | Stability of Cannabinoids in AB Red ([1]; 510 days): 0.47 µg/mL | Stability of Cannabinoids in AB Red ([1]; 540 days): 0.47 µg/mL | Stability of Cannabinoids in AB Red ([1]; 570 days): 0.47 µg/mL | Stability in Powder Concentrate (content by LCMSMS) ([2]; day 0): 0.050 mg/g powder | Stability in Powder Concentrate (content by LCMSMS) ([2]; day 1): 0.051 mg/g powder | Stability in Powder Concentrate (content by LCMSMS) ([2]; day 2): 0.049 mg/g powder | Stability in Powder Concentrate (content by LCMSMS) ([2]; day 3): 0.050 mg/g powder | Stability in Powder Concentrate (content by LCMSMS) ([2]; day 5): 0.052 mg/g powder | Stability in Powder Concentrate (content by LCMSMS) ([2]; day 8): 0.050 mg/g powder | Stability in Powder Concentrate (content by LCMSMS) ([2]; day 9): 0.050 mg/g powder | Stability in Powder Concentrate (content by LCMSMS) ([2]; day 10): 0.050 mg/g powder | Stability in Powder Concentrate (content by LCMSMS) ([2]; day 11): 0.052 mg/g powder | Stability in Powder Concentrate (content by LCMSMS) ([2]; day 12): 0.052 mg/g powder | Stability in Powder Concentrate (content by LCMSMS) ([2]; day 15): 0.048 mg/g powder | Stability in Powder Concentrate (content by LCMSMS) ([2]; day 16): 0.049 mg/g powder | Stability in Powder Concentrate (content by LCMSMS) ([2]; day 17): 0.049 mg/g powder | Stability in Powder Concentrate (content by LCMSMS) ([2]; day 18): 0.052 mg/g powder | Stability in Powder Concentrate (content by LCMSMS) ([2]; day 19): 0.052 mg/g powder | Stability in Powder Concentrate (content by LCMSMS) ([2]; day 22): 0.051 mg/g powder | Stability in Powder Concentrate (content by LCMSMS) ([2]; day 23): 0.051 mg/g powder | Stability in Powder Concentrate (content by LCMSMS) ([2]; day 24): 0.050 mg/g powder | Stability in Powder Concentrate (content by LCMSMS) ([2]; day 25): 0.050 mg/g powder | Stability in Powder Concentrate (content by LCMSMS) ([2]; day 26): 0.051 mg/g powder | Stability in Powder Concentrate (content by LCMSMS) ([2]; day 29): 0.048 mg/g powder | Stability in Powder Concentrate (content by LCMSMS) ([2]; day 30): 0.051 mg/g powder | Stability in Powder Concentrate (content by LCMSMS) ([2]; day 60): 0.050 mg/g powder | Stability in Powder Concentrate (content by LCMSMS) ([2]; day 90): 0.050 mg/g powder | Stability in Powder Concentrate (content by LCMSMS) ([2]; day 120): 0.048 mg/g powder | Stability in Powder Concentrate (content by LCMSMS) ([2]; day 150): 0.050 mg/g powder | Stability in Powder Concentrate (content by LCMSMS) ([2]; day 180): 0.049 mg/g powder | Stability in Powder Concentrate (content by LCMSMS) ([2]; day 210): 0.052 mg/g powder | Stability in Powder Concentrate (content by LCMSMS) ([2]; day 240): 0.049 mg/g powder | Stability in Powder Concentrate (content by LCMSMS) ([2]; day 270): 0.051 mg/g powder | Stability in Powder Concentrate (content by LCMSMS) ([2]; day 300): 0.050 mg/g powder | Stability in Powder Concentrate (content by LCMSMS) ([2]; day 330): 0.049 mg/g powder | Stability in Powder Concentrate (content by LCMSMS) ([2]; day 360): 0.050 mg/g powder | Stability in Powder Concentrate (content by LCMSMS) ([2]; day 390): 0.052 mg/g powder | Stability in Powder Concentrate (content by LCMSMS) ([2]; day 420): 0.050 mg/g powder | Stability in Powder Concentrate (content by LCMSMS) ([2]; day 450): 0.052 mg/g powder | Stability in Powder Concentrate (content by LCMSMS) ([2]; day 480): 0.051 mg/g powder | Stability in Powder Concentrate (content by LCMSMS) ([2]; day 510): 0.050 mg/g powder | Stability in Powder Concentrate (content by LCMSMS) ([2]; day 540): 0.048 mg/g powder | Stability in Powder Concentrate (content by LCMSMS) ([2]; day 570): 0.050 mg/g powder
